In US7045497B1, “Use of peptide” (Takeda Chemical Industries, Ltd., priority 1998, dated 2006):
No end group written: not given here.

System: oxytocin secretion
Assay: Effect of third intraventricular administration of PrRP (19P2-L31) on amount of oxytocin secreted in plasma (radioimmunoassay)
Assay type: in vivo, Mature male Wistar rats
Procedure: Mature male Wistar rats (weighing 350 to 380 g at the time of surgery) were anesthetized by intraperitoneal administration of 50 mg/kg pentobarbital, and were fixed in a rat brain stereotactic instrument. The brace bar was lowered 3.3 mm from the intra-oral line. The cranial bone was exposed, and a dental drill was used to perforate the bone in order to implant a guide cannula AG-12 (inside diameter 0.4 mm, outside diameter 0.5 mm, Eicom) into the third ventricle. Anchor screws were embedded in four locations around the cannula. The stainless steel guide cannula AG-12 was inserted to a position at the top of the third ventricle. Position coordinates were AP: +7.1 mm, L: 0.0 mm, and H: +2.0 mm, in accordance with the atlas of Paxinos and Watson (1986). The guide cannula was secured to the cranial bone using instant adhesive, dental cement, and the anchor screws. A stainless steel dummy cannula AD-12 (outside diameter 0.35 mm, Eicom) was inserted into the guide cannula and secured with a cap nut (Eicom). Following surgery, the rats were bred in individual cages.
Animal were given about 1 week to recover after implantation of the guide cannulas, and blood was drawn as the animals were allowed to move freely. Rats which had undergone the aforementioned surgery were anesthetized by intraperitoneal administration of 50 mg/kg pentobarbital. […]

Q: How did the “oxytocin concentration in blood relative to control group” value (rat, 10 nmol to the third ventricle, 5 minutes after administration, FIG. 2) turn out when “PrRP (19P2-L31): physiologically active peptide, ligand for G protein-coupled receptors phGR3 (GPR10) and UHR-1; described in Nature 393:272–276 (1998) and WO 97/24436 (SRTHRHSMEIRTPDINPAWYASRGIRPVGRF; ends and bridges not checked; UniProt P81277 23-53, looked up)” was run?
A: about 2 times

Q: And the “oxytocin concentration in blood after intraventricular administration” value (rats, intraventricular administration, result in words)?
A: elevated oxytocin concentration in blood
